# Active and inactive are the calls of the source.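 The calls were made as follows: active = compounds passing through the artificial lipid membrane faster than 100 units at the neutral pH 7.4; inactive = the rest.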
# Test system: PAMPA double-sink, GIT-0 lipid, UV read-out
# Experiment: artificial-membrane permeation in aqueous buffer – biophysical, double-sink PAMPA, pH 5.0/6.2/7.4, ADME assay for GPR30 and estrogen receptor ligands, late-stage follow-up (AID 602462)
# Details: stronger effect = higher value; for permeability Pe pH 5.0: measured here: permeability at pH 5.0; for permeability Pe pH 6.2: measured here: permeability at pH 6.2
Compound,permeability Pe pH 7.4,permeability Pe pH 5.0,permeability Pe pH 6.2
CC(=O)c1ccc2c(c1)[C@@H]1C=CC[C@@H]1[C@H](c1cc3c(cc1Br)OCO3)N2,0 10^-6 cm/s (inactive),0 10^-6 cm/s,0 10^-6 cm/s
COc1cc([N+](=O)[O-])cc2c1NC(C1CC=CCC1)C1CC=CC21 (stereo unspecified),117 10^-6 cm/s,44 10^-6 cm/s,120 10^-6 cm/s

# Source: PubChem BioAssay AID602462 (NMMLSC, 2012)
